Our source for the Papp, solubility and Vd values is ChEMBL document CHEMBL4251550, “Applications of parallel synthetic lead hopping and pharmacophore-based virtual screening in the discovery of efficient glycine receptor potentiators” (Eur J Med Chem, 2017).

A short description of data set [1]: Apparent permeability in MDCK cells. The format is ADME, cell-based, Canis lupus familiaris. The conditions noted are these: dog.
Data set [2] is described as follows: Solubility of compound in FaSSIF. The format is physicochemical.
The nature of data set [3]: Volume of distribution at steady state in CD1 mouse at 1 mg/kg, iv. The class given is ADME, organism-based. The note with it: in vivo, read-out: Vdss.

What is called Papp is the rate of passage across a membrane or cell layer, normalised by area and donor concentration. The solubility is the dissolved amount per volume that the medium holds. A lower solubility goes with little dissolved substance.

≈ marks a conversion by molar mass, not a printed value. Where only a bound is given, the exact number is not on record here.

Turning to `O=S(=O)(c1ccc2c(c1)OCO2)N1CC[C@@H](c2ccccc2F)C1`, in data set [1], the Papp turned out to be 28 ×10⁻⁶ cm/s. The solubility in data set [2] amounted to 17 µM (≈ 5.94 µg/mL).

For `COc1ccccc1OC1CN(S(=O)(=O)c2ccc3c(c2)OCO3)C1`, the Papp in data set [1] is 44 ×10⁻⁶ cm/s. The concentration in solution in data set [2] (solubility) was 102 µM (≈ 37.1 µg/mL).

Take `COc1ccc(Cl)cc1OC1CN(S(=O)(=O)c2ccc3[nH]c(=O)oc3c2)C1`: the Papp in data set [1] amounted to 39 ×10⁻⁶ cm/s. The Vd in data set [3] was found to be 1.4 L/kg. In addition, in data set [2], the solubility is 96 µM (≈ 39.4 µg/mL).

For the compound `CN1C(=O)[C@@H]2CN(S(=O)(=O)c3ccc4c(c3)OCO4)C[C@@H]2c2ccccc21`, the Papp in data set [1] is 44 ×10⁻⁶ cm/s. Also, in data set [2], the solubility is under 1 µM.
